The source of these data is US9371337B2, “β-lactamase inhibitors” (The Regents of the University of California, priority 2011, dated 2016).

Like-named read-outs stand apart in the source and are kept apart here.

In general, Ki refers to a dissociation constant, usually derived from enzyme kinetics or from competition with a known ligand. One may read the IC50 as the point on the concentration scale where inhibition reaches its midpoint. For orientation: inhibition means the relative decrease from the control value, in per cent.

The target in assay [1] is T1, AmpC β-lactamase (Escherichia coli, UniProt P00811).
T1 construct: made in house
Put plainly: biochemical. Type of assay: biochemical. How it is done:
FIG. 18. Representative IC50 curves. […] IC50 curves were obtained by measuring rates (in duplicates) at different inhibitor concentrations (x-axis) and by determining the residual activity (y-axis, in percentage). IC50 values were determined by non-linear regression and Ki values calculated using GraphPad software assuming competitive inhibition.
Sulfonamidomethaneboronic acids were dissolved in 100% DMSO at a concentration of 100 mM; more diluted stocks were prepared as necessary. […] The enzyme was expressed and purified as described (Usher, K. C. et al., Biochemistry 1998, 37, 16082-16092) and CENTA was purchased from Tydock Pharma.
Kinetic measurements were run at room temperature in 50 mM sodium-cacodylate pH 6.5 in the presence of 0.01% Triton-X to prevent non-specific inhibition via compound aggregation. […] (Kettner, C. A. and Shenvi, A. B., J. Biol. Chem. 1984, 259, 15106-15114) Reactions were performed in 1 mL cuvettes with 60 μM CENTA and initiated by adding 1.2 nM enzyme. […] (Weston, G. S. et al., J. Med. Chem. 1998, 41, 4577-4586) The first 180 sec of each reaction were used to measure initial rates. IC50 values were obtained by fitting binding data to a sigmoidal dose-response equation using GraphPad Prism (GraphPad software, Inc). Ki values were determined by the use of Cheng-Prusoff equation. (Cheng, Y. and Prusoff, W. H., Biochem. Pharmacol. 1973, 22, 3099-3108)

The test system of another assay is Elastase. The assay can be described thus: Elastase inhibition. Type of assay: biochemical. To be noted: Table 4h, Elastase vs AmpC. The text has this:
(§1) To assess the selectivity of the new molecules we determined Ki values against three common serine proteases, Trypsin, Elastase and α-Chymotrypsin, as well as that of a class A β-lactamase, CTX-M-9 (Table 10) (Pouvreau L, et al. (1998), FEBS Lett 423:167-172; Del Mar E G, et al. (1980), Biochemistry 19:468-472; Rodriguez-Martinez J A, et al. (2009), Biotechnol Lett 31:883-887; Chen Y, et al. (2005), J Mol Biol 348:349-362).

Assay [2] has as its target T2, Trypsin (UniProt P00760).
T2 construct: IC50 (Estimated from single concentration measurement); Ki
T2 sequence (P00760 1-246): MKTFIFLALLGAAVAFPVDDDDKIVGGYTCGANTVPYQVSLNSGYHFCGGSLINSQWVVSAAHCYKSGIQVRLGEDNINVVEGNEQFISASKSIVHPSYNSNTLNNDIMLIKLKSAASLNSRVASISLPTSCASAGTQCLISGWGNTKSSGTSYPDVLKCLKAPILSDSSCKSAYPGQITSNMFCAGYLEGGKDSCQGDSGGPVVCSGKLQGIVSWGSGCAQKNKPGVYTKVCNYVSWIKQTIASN
Put plainly: Trypsin inhibition. Type of assay: biochemical. The following applies: Table 10, Trypsin.
Description: as §1

The target in a further assay is CTX-M-9 β-lactamase (Escherichia coli, UniProt Q9L5C8). The assay can be described thus: biochemical. Type of assay: biochemical. The method, then:
Reactions were initiated by the addition of 0.3 nM enzyme and monitored at 405 nm.
as §1

The target in assay [3] is T1, AmpC β-lactamase. Type of assay: biochemical.
Assay [4] concerns clinical strains resistant to third-generation cephalosporins. Put plainly: MIC distribution of third-generation cephalosporins alone or with compounds over clinical strains. Type of assay: cell-based. The method, then:
The anti-resistance activity of inhibitors was investigated by the determination of the minimum inhibitory concentrations (MICs) of the β-lactam/inhibitor combination necessary to inhibit the growth of clinically-isolated bacteria resistant to third-generation cephalosporins via expression of class A or class C β-lactamases (Table 6).
Susceptibility testing was performed and interpreted following the guidelines of CLSI. (Clinical and Laboratory Standards Institute, Performance standards for antimicrobial susceptibility testing, 20th Informational Supplement, M100-S20 2010) The compounds were dissolved in 50% DMSO, and dilutions were performed using Muller-Hinton medium. An adequate final concentration was obtained to determine the minimum inhibitory concentrations (MICs). The concentration of DMSO was maintained below 5%. The inhibitors were tested for synergy with the third-generation β-lactams ceftazidime and cefotaxime against several clinical bacteria. The ratio of β-lactams to inhibitors was 1:4. Each value reported reflects the average of three independent experiments. […] The Friedman's test and the Wilcoxon signed rank test were used to compare MIC values. Statistical significance was established at p<0.05.

Assay [5] addresses T3, α-chymotrypsin (bovine pancreatic) (Bos taurus, UniProt P00766).
T3 construct: purchased Sigma-Aldrich
Put plainly: α-Chymotrypsin inhibition. Type of assay: biochemical. The method, then:
α-Chymotrypsin assays were performed in 50 mM Tris buffer pH 7.5 with 0.01% Triton-X. Inhibitor and 0.001 mg/mL enzyme were incubated at their final concentration for 10 min before the reaction was initiated by the addition of 200 μM N-succinyl-Ala-Ala-Pro-Phe p-nitroanilide and monitored at 410 nm.
as §1

Assay [6] concerns Trypsin. The assay can be described thus: Trypsin inhibition. Type of assay: biochemical. To be noted: Table 4h, Trypsin vs AmpC.
Assay [7] addresses T2, Trypsin. Put plainly: Trypsin inhibition. Type of assay: biochemical.
Where [8] appears, read: third-generation cephalosporins in combination with the compound.

Sequence of CTX-M-9 β-lactamase (Q9L5C8 29-291): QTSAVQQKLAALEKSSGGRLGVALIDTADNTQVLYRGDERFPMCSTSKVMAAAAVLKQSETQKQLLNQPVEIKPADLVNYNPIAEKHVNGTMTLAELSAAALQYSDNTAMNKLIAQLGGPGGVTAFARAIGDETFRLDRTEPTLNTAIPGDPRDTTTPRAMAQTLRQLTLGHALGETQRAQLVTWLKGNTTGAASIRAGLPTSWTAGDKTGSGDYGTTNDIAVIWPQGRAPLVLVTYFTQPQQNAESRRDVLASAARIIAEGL
T1 sequence (P00811 20-377): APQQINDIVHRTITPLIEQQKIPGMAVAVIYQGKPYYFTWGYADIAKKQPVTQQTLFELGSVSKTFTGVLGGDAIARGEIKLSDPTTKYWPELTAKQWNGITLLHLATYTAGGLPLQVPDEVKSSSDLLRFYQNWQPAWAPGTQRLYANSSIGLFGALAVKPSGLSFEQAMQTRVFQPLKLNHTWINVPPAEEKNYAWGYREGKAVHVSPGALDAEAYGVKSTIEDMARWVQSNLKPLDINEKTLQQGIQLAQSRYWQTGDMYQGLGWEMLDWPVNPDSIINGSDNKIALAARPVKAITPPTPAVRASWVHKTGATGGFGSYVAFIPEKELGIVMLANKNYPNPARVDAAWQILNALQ

Take `CC(C)[C@H](NS(=O)(=O)Cc1ccccc1)B(O)O` [CR173, (1R)-1-(Phenylmethanesulfonylamino)-2-methylpropaneboronic acid]: on AmpC β-lactamase [1] (Ki Vs AmpC, Table 7), affinity was put at a Ki of 13 µM.

For the compound `COC(=O)c1ccc(CS(=O)(=O)NCB(O)O)cc1` [Compound 8], the Ki on AmpC β-lactamase [1] (Table 7, read-out: Ki Vs AmpC) is 0.12 µM.

For the compound `CC(C)[C@H](NS(C)(=O)=O)B(O)O` [CR175, (1R)-1-(Methylsulfonylamino)-2-methylpropaneboronic acid], at AmpC β-lactamase [1] (Ki Vs AmpC, Table 7), the Ki turned out to be 100 µM.

Take `O=S(=O)(NCB(O)O)c1ccc(-c2nnn[nH]2)cc1` [CR157, [4-(3-tetrazol-5-yl)benzensulfonylamino]methaneboronic acid]: the “Selectivity vs AmpC (comparison of IC50 values)” value in the assay on Elastase was determined as 31309; on CTX-M-9 β-lactamase (Table 4h, CTX-M-9 vs AmpC) it was 1694; in [5] (Table 4h, Chymotrypsin vs AmpC), 145161; in the assay with Trypsin [6], 306452. The IC50 stood at 0.0062 µM against AmpC β-lactamase [1] and 10.5 µM at CTX-M-9 β-lactamase. The Ki at AmpC β-lactamase [1] (Ki) was 0.0008 to 0.0013 µM; on AmpC β-lactamase [1] (Ki (from multi- or single concentration measurements), Table 4g), 0.0012 µM; on AmpC β-lactamase [1] (Ki Vs AmpC, Table 7), 0.0012 µM; on AmpC β-lactamase [1] (Ki vs AmpC, Table 8), 0.0012 µM; at AmpC β-lactamase [1] (Ki, Table 5) it was 0.0012 µM; at AmpC β-lactamase [1] (Ki, Table 10, AmpC), 0.0012 µM. Further, the inhibition constant (Ki) on Trypsin [2] turned out to be 350 µM; on CTX-M-9 β-lactamase (Table 8, read-out: Ki vs CTX-M-9), 2.5 µM; in [5] (Table 10, α-Chymotrypsin) it was 224 µM. The Ligand efficiency on AmpC β-lactamase [1] (Table 5) was found to be 0.63. Besides, the potency estimated from few doses on CTX-M-9 β-lactamase (read-out: IC50 (Estimated from single concentration measurement)) was 6 µM; in assay [5] (Table 4e, read-out: IC50 (Estimated from single concentration measurement)), 900 µM; at Trypsin [7] (read-out: IC50 (Estimated from single concentration measurement), Table 4e) it was 1900 µM. Moreover, the inhibition at 16 µM at CTX-M-9 β-lactamase (read-out: Percentage inhibition with 16 μM inhibitor) was found to be 73%. For the same compound, the type of inhibition result at AmpC β-lactamase [3] (Lineweaver-Burk analysis, competition with substrate CENTA) is “competitive”. Moreover, the “time dependence of inhibition (incubation effect, off-rate)” value on AmpC β-lactamase [3] (enzyme incubation and dilution experiments) is recorded as “incubation effect owing to slow off-rates”. Also, in assay [4] (cephalosporins combined with the compound), the “clinical isolates for which MICs dropped into the susceptible range (MICs≦1 μg/mL)” value came out at 25%. In assay [4] (setting [8]), the “MIC 25% percentile” value amounted to 1.5 µg/mL. The “MIC 75% percentile” value in [4] (setting [8]) amounted to 4.0 µg/mL. For the same compound, the activity at 100 µM in assay [5] (Table 4b, 100 μM inhibitor, read-out: Percentage activity with 100 μM inhibitor) is 90%. Besides, the inhibition at 100 µM in [5] (read-out: Percentage inhibition with 100 μM inhibitor) was 10%. For the same compound, the “Percentage activity with 100 μM inhibitor” value at Trypsin [7] (Table 4b, 100 μM inhibitor) worked out at 95. At Trypsin [7] (Table 4c, 100 μM inhibitor), the “Percentage inhibition with 100 μM inhibitor” value stood at 5.

For the compound `CS(=O)(=O)NCB(O)O` [Compound 3, Pinacol(methanesulfonylamino)methaneboronate], the Ligand efficiency at AmpC β-lactamase [1] is on record as 0.91. For the same compound, the Ki on AmpC β-lactamase [1] (Ki vs AmpC, Table 8) turned out to be 0.8 µM; at AmpC β-lactamase [1] (read-out: Ki), 0.789 µM. For the same compound, the “improvement of potency compared to the carboxamide analog” value on AmpC β-lactamase [1] (ratio of Ki values) stood at 23 fold.

Compound `Cc1ccc(S(=O)(=O)N(C)CB(O)O)cc1` [CR14] returned a Ki at AmpC β-lactamase [1] (Ki Vs AmpC, Table 7) of 0.63 µM.

`O=[N+]([O-])c1cccc(CS(=O)(=O)NCB(O)O)c1` [Compound 6]: the Ki at AmpC β-lactamase [1] (Table 7, read-out: Ki Vs AmpC) came to 0.189 µM.

Consider “Pinacol(isopropylsulfonylamino)methaneboronate [GBS22]”, for which the Ki on AmpC β-lactamase [1] (Table 7, read-out: Ki Vs AmpC) was 0.1 µM.

The compound `Cc1ccc(S(=O)(=O)N(CB(O)O)C(C)(C)C)cc1` [CR17] returned a Ki at AmpC β-lactamase [1] (Ki Vs AmpC, Table 7) of 2.5 µM.

`C[C@H](NS(=O)(=O)Cc1ccccc1)B(O)O` [GBS34, (1R)-1-(Phenylmethanesulfonylamino)-1-ethaneboronic acid] came in with a Ki at AmpC β-lactamase [1] (Ki Vs AmpC, Table 7) of 0.31 µM.

In the case of `C[C@H](NS(C)(=O)=O)B(O)O` [GBS32, (1R)-1-(Methylsulfonylamino)-1-ethaneboronic acid], on AmpC β-lactamase [1] (Ki Vs AmpC, Table 7), the affinity corresponds to a Ki of 0.65 µM.

Consider `CC1(C)OB(c2ccccc2NS(C)(=O)=O)OC1(C)C` [CR181, Pinacol 2-(methylsulfonylamino)phenylboronate], for which the Ki on AmpC β-lactamase [1] (Table 7, read-out: Ki Vs AmpC) came to 0.4 µM.

With `CC1(C)OB(c2ccccc2NS(=O)(=O)Cc2ccccc2)OC1(C)C` [CR180, Pinacol 2-(phenylmethanesulfonylamino)phenylboronate], the Ki at AmpC β-lactamase [1] (Table 7, read-out: Ki Vs AmpC) was found to be 0.2 µM.

`CC(C)(C)N(CB(O)O)S(=O)(=O)Cc1ccccc1` [CR22]: the affinity at AmpC β-lactamase [1] (Ki Vs AmpC, Table 7) corresponds to a Ki of 5.1 µM.

As to `N#Cc1ccc(S(=O)(=O)NCB(O)O)cc1` [CR162, [4-cyanobenzensulfonylamino]methaneboronic acid], the Ki was determined as 0.31 µM at AmpC β-lactamase [1] (Ki Vs AmpC, Table 7) and 0.31 µM at AmpC β-lactamase [1] (Ki vs AmpC, Table 8).

Turning to “Pinacol(3-cyanopropane-1-sulfonylamino)methaneboronate [CR135]”, on AmpC β-lactamase [1] (Table 7, read-out: Ki Vs AmpC), the Ki was 0.2 µM.

For `O=C(Cc1cccs1)N[C@@H](Cc1cccc(C(=O)O)c1)B(O)O` [Compound 17c, reference compound], the Ki at AmpC β-lactamase [1] (Table 1, read-out: Ki) was found to be 0.039 µM.

Take `CCOc1ccc2ccccc2c1S(=O)(=O)NCB(O)O` [Compound 11, (2-Ethoxy-naphthalene-1-sulfonylamino)methaneboronic acid]: the Ki at AmpC β-lactamase [1] (read-out: Ki) came out at 0.67 µM.

Take `O=S(=O)(Cc1ccccc1)N[C@@H](Cc1ccccc1)B(O)O` [Compound 16, (1R)-1-(phenylmethanesulfonylamino)-2-phenylethaneboronic acid]: the Ki on AmpC β-lactamase [1] (Table 1, read-out: Ki) was 3.72 µM; on AmpC β-lactamase [1] (Table 7, read-out: Ki Vs AmpC), 3.72 µM.

`O=C(Cc1cccs1)N[C@H](B(O)O)c1cccc(C(=O)O)c1` [SM23, reference compound] displayed a Ligand efficiency on AmpC β-lactamase [1] (Table 5) of 0.55.

With `N#Cc1ccc(S(=O)(=O)NCB(O)O)cn1` [CR163, [6-cyanopyridin-3-sulfonylamino]methaneboronic acid hydrocloride], the Ki turned out to be 0.27 µM on AmpC β-lactamase [1] (Ki Vs AmpC, Table 7) and 0.27 µM at AmpC β-lactamase [1] (Ki vs AmpC, Table 8).
